This note sets out measurements from ChEMBL document CHEMBL4811309, “Design, synthesis and antiproliferative activity of novel 2,4-diamino-5-methyleneaminopyrimidine derivatives as potential anticancer agents” (Bioorg Med Chem Lett, 2021).

As a reminder, the IC50 is the concentration at which inhibition is half-maximal.

Holding throughout (assay type): functional, cell-based
The test system of one assay is HCT-116. Description: Antiproliferative activity against human HCT-116 cells assessed as reduction in cell viability by MTT assay. For orientation: Tetrazolium assays rely on reduction of a dye to a coloured formazan, in cell work by metabolically active cells.
A further assay deals with HT-29. Nature of the assay: Antiproliferative activity against human HT-29 cells assessed as reduction in cell viability by MTT assay.
A further assay concerns HeLa. Description: Antiproliferative activity against human HeLa cells assessed as reduction in cell viability by MTT assay.
The subject of another assay is MCF7. Nature of the assay: Antiproliferative activity against human MCF7 cells assessed as reduction in cell viability by MTT assay.

Consider `NS(=O)(=O)c1ccc(Nc2ncc(/N=C/c3ccccc3)c(NC3CCCC3)n2)cc1`, for which the IC50 in the assay on HCT-116 is 26.1 µM; in the assay with HT-29, 27 µM; in the assay with HeLa, 15.6 µM; in the assay with MCF7, 39.1 µM.
Turning to `C(=N\c1cnc(Nc2ccc(N3CCOCC3)cc2)nc1NC1CCCC1)/c1cccs1`, the IC50 with HCT-116 is over 100 µM; with HT-29, 20.8 µM; in the assay on HeLa, over 100 µM; in the assay on MCF7 it was over 100 µM.
`NS(=O)(=O)c1ccc(Nc2ncc(/N=C/c3ccc(C(F)(F)F)cc3)c(NC3CCCC3)n2)cc1`: the half-maximal inhibitory concentration (IC50) in the assay on HCT-116 is over 100 µM; in the assay on HT-29 it was over 100 µM; with HeLa, 21.9 µM; with MCF7 it was over 100 µM.
Turning to `CC(C)Nc1nc(Nc2ccc(N3CCN(C)CC3)cc2)ncc1/N=C/c1ccc(C(F)(F)F)cc1`, the IC50 was 42.2 µM with HCT-116, over 100 µM with HT-29, over 100 µM in the assay with HeLa and over 100 µM in the assay with MCF7.
As for `CCOC(=O)/C=N/c1cnc(Nc2ccc(N3CCN(C)CC3)cc2)nc1NC(C)C`, the 50% inhibitory concentration (IC50) with HCT-116 came out at 13.6 µM; in the assay on HT-29 it was 7.59 µM; with HeLa, 11.5 µM; with MCF7, 12.3 µM.
Consider `CN1CCN(c2ccc(Nc3ncc(/N=C/c4cccs4)c(NC4CCCC4)n3)cc2)CC1`, for which the half-maximal inhibitory concentration (IC50) in the assay with HCT-116 was 18.9 µM; with HT-29, 21.7 µM; in the assay with HeLa it was 25.7 µM; in the assay on MCF7, 33.9 µM.
`CC(C)Nc1nc(Nc2ccc(N3CCOCC3)cc2)ncc1/N=C/c1ccccc1`: the IC50 in the assay on HCT-116, in the assay on HT-29, with HeLa and in the assay with MCF7 was over 100 µM each time.
Regarding `CCOC(=O)/C=N/c1cnc(Nc2ccc(S(N)(=O)=O)cc2)nc1NC1CCCC1`, the half-inhibitory concentration (IC50) in the assay with HCT-116 stood at 9.64 µM; in the assay on HT-29 it was 23.6 µM; in the assay on HeLa, 20.7 µM; with MCF7, 42.2 µM.
In the same order, the values of `CCOC(=O)/C=N/c1cnc(Nc2ccc(S(N)(=O)=O)cc2)nc1NC(C)C` are 49.1 µM, over 100 µM, 83.3 µM and 58.8 µM.
Regarding `CCOC(=O)/C=N/c1cnc(Nc2ccc(N3CCOCC3)cc2)nc1NC(C)C`, the IC50 in the assay on HCT-116 amounted to 23.7 µM; with HT-29, 19.6 µM; with HeLa, 27.7 µM; in the assay with MCF7, 15.2 µM.
`CN1CCN(c2ccc(Nc3ncc(/N=C/c4ccccc4)c(NC4CCCC4)n3)cc2)CC1`: the IC50 in the assay on HCT-116 is 35.2 µM; with HT-29 it was 28.6 µM; in the assay with HeLa, over 100 µM; with MCF7, over 100 µM.
For `C(=N\c1cnc(Nc2ccc(N3CCOCC3)cc2)nc1NC1CCCC1)/c1ccccc1`, the half-inhibitory concentration (IC50) in the assay on HCT-116 was over 100 µM; in the assay with HT-29 it was 67.6 µM; with HeLa, over 100 µM; in the assay with MCF7, over 100 µM.
With `O=c1[nH]cc(F)c(=O)[nH]1` [FLUOROURACIL], the IC50 with HT-29 is 16.1 µM; with HeLa it was 42.7 µM; with MCF7, 18.1 µM.
Regarding `NS(=O)(=O)c1ccc(Nc2ncc(/N=C/c3cccs3)c(NC3CCCC3)n2)cc1`, the half-maximal inhibitory concentration (IC50) in the assay on HCT-116 was 13.3 µM; in the assay on HT-29, 9.95 µM; in the assay on HeLa it was 10.9 µM; in the assay with MCF7, 23 µM.
For `CCOC(=O)/C=N/c1cnc(Nc2ccc(N3CCN(C)CC3)cc2)nc1NC1CCCC1`, the half-inhibitory concentration (IC50) in the assay on HCT-116 came to 17 µM; with HT-29, 15.1 µM; in the assay on HeLa it was 18.9 µM; with MCF7, 42.3 µM.
With `CC(C)Nc1nc(Nc2ccc(N3CCOCC3)cc2)ncc1/N=C/c1cccs1`, the IC50 with HCT-116 is 14.8 µM; in the assay with HT-29, 25.3 µM; in the assay with HeLa it was over 100 µM; in the assay on MCF7, over 100 µM.
On to `CC(C)Nc1nc(Nc2ccc(S(N)(=O)=O)cc2)ncc1/N=C/c1cccs1`, for which the IC50 in the assay on HCT-116 was 82.1 µM; in the assay on HT-29 it was over 100 µM; with HeLa, over 100 µM; in the assay with MCF7 it was 50.2 µM.
As to `CC(C)Nc1nc(Nc2ccc(S(N)(=O)=O)cc2)ncc1/N=C/c1ccccc1`, the IC50 is over 100 µM in the assay with HCT-116, 98.2 µM with HT-29, over 100 µM with HeLa and over 100 µM in the assay on MCF7.
For `CCOC(=O)/C=N/c1cnc(Nc2ccc(S(N)(=O)=O)cc2)nc1NC1CC1`, the IC50 in the assay with HCT-116, in the assay on HT-29, in the assay on HeLa and in the assay on MCF7 was over 100 µM each time.
`CC(C)Nc1nc(Nc2ccc(S(N)(=O)=O)cc2)ncc1/N=C/c1ccc(C(F)(F)F)cc1`: the IC50 in the assay on HCT-116, with HT-29, with HeLa and in the assay on MCF7 was over 100 µM throughout.
`CC(C)Nc1nc(Nc2ccc(N3CCN(C)CC3)cc2)ncc1/N=C/c1ccccc1`: the IC50 in the assay on HCT-116 was over 100 µM; in the assay with HT-29, 12.1 µM; with HeLa it was over 100 µM; in the assay on MCF7 it was over 100 µM.
Take `FC(F)(F)c1ccc(/C=N/c2cnc(Nc3ccc(N4CCOCC4)cc3)nc2NC2CCCC2)cc1`: the IC50 in the assay with HCT-116 is 97.2 µM; in the assay with HT-29 it was over 100 µM; in the assay on HeLa it was over 100 µM; in the assay on MCF7, over 100 µM.
As to `CC(C)Nc1nc(Nc2ccc(N3CCOCC3)cc2)ncc1/N=C/c1ccc(C(F)(F)F)cc1`, the IC50 in the assay on HCT-116, in the assay on HT-29, with HeLa and in the assay on MCF7 was over 100 µM in each case.
Consider `CN1CCN(c2ccc(Nc3ncc(/N=C/c4ccc(C(F)(F)F)cc4)c(NC4CCCC4)n3)cc2)CC1`, for which the IC50 was over 100 µM with HCT-116, 80.7 µM in the assay with HT-29, over 100 µM in the assay with HeLa and over 100 µM with MCF7.
Turning to `CC(C)Nc1nc(Nc2ccc(N3CCN(C)CC3)cc2)ncc1/N=C/c1cccs1`, the IC50 in the assay with HCT-116 is over 100 µM; in the assay with HT-29 it was over 100 µM; in the assay on HeLa, 77.1 µM; in the assay on MCF7 it was 91 µM.
